Source: patent US20130217664A1, “NOVEL COMPOUNDS USEFUL FOR THE TREATMENT OF DEGENERATIVE AND INFLAMMATORY DISEASES” (priority 2012, published 2013)
Like-named read-outs stand apart in the source and are kept apart here.

How the values were obtained:
human TYK2 = target: T1, human TYK2 (Homo sapiens, UniProt P29597); test: TYK2 inhibition assay; assay type: biochemical; conditions: recombinant human TYK2 catalytic domain, polyGT substrate
T1 construct: catalytic domain (amino acids 871-1187; catalog number 08-147); purchased Carna Biosciences 08-147
T1 sequence (P29597 871-1187): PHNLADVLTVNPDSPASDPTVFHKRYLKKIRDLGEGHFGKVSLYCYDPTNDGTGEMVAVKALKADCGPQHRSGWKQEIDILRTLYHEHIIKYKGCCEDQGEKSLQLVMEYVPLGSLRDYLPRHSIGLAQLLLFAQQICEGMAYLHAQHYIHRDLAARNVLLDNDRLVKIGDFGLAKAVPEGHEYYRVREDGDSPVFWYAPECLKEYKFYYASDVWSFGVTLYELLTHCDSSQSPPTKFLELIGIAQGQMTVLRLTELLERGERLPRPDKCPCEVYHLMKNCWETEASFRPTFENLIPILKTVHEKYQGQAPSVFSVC
Outline: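 Radiometric kinase reaction run 90 min at 30 °C, stopped with phosphoric acid, washed and scintillation-counted.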

[1] = tested on: pSTAT1(2)-luciferase reporter in HeLa cells triggered with human OSM; test: JAK-STAT signalling assay; assay type: cell-based; conditions: HeLa cells, pSTAT1(2)-luciferase reporter, human OSM 33 ng/mL, read-out: JAK-STAT IC50
Outline: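 Compound added 60 min before 33 ng/mL (final) human OSM; after overnight stimulation at 37 °C, luciferase signal from a transiently transfected pSTAT1(2) reporter in HeLa cells was read, with LacZ as internal control. EC50 derived from percent-inhibition dose-response curves.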

CTLL-2 cell line = test: CTLL2 viability assay; assay type: cell-based; conditions: Mus musculus, IL-2 dependent CTLL2 viability, 24 h, ATP-lite
Description: The protocol describes the methods to analyse the activity of compounds on their ability to sustain the IL2-dependent viability of CTLL2.
Final DMSO concentration was 0.1%.

BA/F3 cell line = test: BA/F3 viability assay; conditions: Mus musculus, BaF3, 48 h, read-out: BA/F3 IC50
human JAK1 = target: T2, human JAK1 (Homo sapiens, UniProt P23458); test: JAK1 inhibition assay (polyGT substrate / Ulight-JAK1 peptide); assay type: biochemical; conditions: recombinant human JAK1 catalytic domain; polyGT or Ulight-JAK1 peptide assay
T2 construct: catalytic domain, amino acids 866-1154; catalog number PV4774; purchased Invitrogen PV4774
Outline: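 Signal scaled between vehicle and 10 μM staurosporine. Radiometric polyGT reactions ran 45 min at 30 °C, counted after phosphoric-acid stop. Ulight peptide reactions ran 60 min at room temperature, fluorescence read after adding Eu-PT66 detection mix with EDTA.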

human JAK3 = target: T3, human JAK3 (Homo sapiens, UniProt P52333); test: JAK3 inhibition assay; assay type: biochemical; conditions: recombinant human JAK3 catalytic domain; polyGT substrate
T3 construct: catalytic domain (amino acids 781-1124; catalog number PV3855); purchased Invitrogen PV3855
Outline: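 Radiometric kinase assay: 0.5 ng JAK3 with 2.5 μg polyGT in Tris pH 7.5/MgCl2 buffer, 1 μM ATP plus 0.25 μCi 33P-γ-ATP, 1% DMSO, 45 min at 30 °C, stopped with phosphoric acid.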

human JAK2 = target: T4, human JAK2 (Homo sapiens, UniProt O60674); test: JAK2 inhibition assay (polyGT substrate / Ulight-JAK1 peptide); assay type: biochemical; conditions: recombinant human JAK2 catalytic domain; polyGT or Ulight-JAK1 peptide assay
T4 construct: catalytic domain (amino acids 808-1132; catalog number PV4210); GST; purchased Invitrogen PV4210
Outline: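 Two JAK2 formats: a ^33P-ATP polyGT assay (1 μM cold ATP, 90 min, 30° C., cpm read-out) and a Ulight-JAK1 peptide assay read by Europium-anti-phosphotyrosine fluorescence after 60 min at room temperature.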

T3 sequence (P52333 781-1124): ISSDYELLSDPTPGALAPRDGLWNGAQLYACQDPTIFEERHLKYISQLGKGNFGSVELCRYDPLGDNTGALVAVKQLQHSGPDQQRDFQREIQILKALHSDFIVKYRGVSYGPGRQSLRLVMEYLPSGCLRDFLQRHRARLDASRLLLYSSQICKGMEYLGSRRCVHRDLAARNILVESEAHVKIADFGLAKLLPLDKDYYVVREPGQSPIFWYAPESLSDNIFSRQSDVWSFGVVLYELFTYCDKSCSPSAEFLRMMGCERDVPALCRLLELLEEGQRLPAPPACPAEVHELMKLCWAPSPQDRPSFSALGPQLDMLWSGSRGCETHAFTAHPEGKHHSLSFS
T4 sequence (O60674 808-1132): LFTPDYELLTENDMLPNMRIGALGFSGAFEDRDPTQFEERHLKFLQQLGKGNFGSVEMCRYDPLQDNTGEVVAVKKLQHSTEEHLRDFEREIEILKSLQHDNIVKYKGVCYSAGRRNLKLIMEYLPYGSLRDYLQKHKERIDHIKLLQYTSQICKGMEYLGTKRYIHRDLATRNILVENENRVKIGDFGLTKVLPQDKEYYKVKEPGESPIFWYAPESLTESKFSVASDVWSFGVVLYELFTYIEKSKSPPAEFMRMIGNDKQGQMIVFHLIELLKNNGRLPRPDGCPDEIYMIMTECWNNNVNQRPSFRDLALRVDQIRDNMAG
T2 sequence (P23458 866-1154): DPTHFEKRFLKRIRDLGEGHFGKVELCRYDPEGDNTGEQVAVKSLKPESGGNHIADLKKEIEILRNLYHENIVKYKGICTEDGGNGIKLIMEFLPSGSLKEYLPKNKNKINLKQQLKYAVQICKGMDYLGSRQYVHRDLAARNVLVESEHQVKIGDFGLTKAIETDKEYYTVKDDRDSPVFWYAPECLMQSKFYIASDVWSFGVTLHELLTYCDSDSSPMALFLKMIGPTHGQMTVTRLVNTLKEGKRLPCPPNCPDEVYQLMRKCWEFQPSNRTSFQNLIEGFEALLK

| SMILES | IC50 (human TYK2) | IC50 [1] | IC50 (BA/F3 cell line) | IC50 (human JAK1) | IC50 (human JAK3) | IC50 ([1]; Homo sapiens, HeLa) | IC50 (human JAK2) | IC50 (CTLL-2 cell line) |
| --- | --- | --- | --- | --- | --- | --- | --- | --- |
| CCc1cc(CNC2COC2)ccc1N(C)c1cc2c(cn1)ncn2C [Compound 167, N-(2-ethyl-4-((oxetan-3-ylamino)methyl)phenyl)-N,1-dimethyl-1H-imidazo[4,5-c]pyridin-6-amine] | 501 to 1000 nM | > 1000 nM | > 5000 nM | 0.01 to 100 nM | > 1000 nM |  |  | > 1000 nM |
| CCc1cc(CN2CCCS2(=O)=O)ccc1N(C)c1cc2c(cn1)ncn2C [Compound 262, [4-(1,1-Dioxoisothiazolidin-2-ylmethyl)-2-ethyl-phenyl]-methyl-(1-methyl-1H-imidazo[4,5-c]pyridin-6-yl)-amine] | 101 to 500 nM | 1 to 500 nM | 1000 to 5000 nM | 0.01 to 100 nM | 101 to 500 nM |  |  | > 1000 nM |
| CCc1cc(C2CCN(S(C)(=O)=O)CC2)ccc1N(C)c1cc2c(cn1)ncn2C [Compound 214, N-(2-ethyl-4-(1-(methylsulfonyl)piperidin-4-yl)phenyl)-N,1-dimethyl-1H-imidazo[4,5-c]pyridin-6-amine] | 0.01 to 100 nM |  | 1 to 1000 nM | 0.01 to 100 nM |  | 1 to 500 nM |  | 501 to 1000 nM |
| CCc1cc(C(CC#N)NS(C)(=O)=O)ccc1N(C)c1cc2c(cn1)ncn2C (centres unmarked) [Compound 387, N-(2-Cyano-1-{3-ethyl-4-[methyl-(1-methyl-1H-imidazo[4,5-c]pyridin-6-yl)-amino]-phenyl}-ethyl)-methanesulfonamide] | 101 to 500 nM |  | > 5000 nM | 0.01 to 100 nM | 101 to 500 nM |  | 101 to 500 nM | > 1000 nM |
| CCc1cc(CNS(=O)(=O)N(C)C)ccc1N(C)c1cc2c(cn1)ncn2C [Compound 375, Dimethyl amino-N-{3-Ethyl-4-[methyl-(1-methyl-1H-imidazo[4,5-c]pyridin-6-yl)-amino]-benzyl}-sulfonamide] | 101 to 500 nM |  | 1000 to 5000 nM | 0.01 to 100 nM | 101 to 500 nM |  | 0.01 to 100 nM | > 1000 nM |
| CN(c1cc2c(cn1)ncn2C)c1c(F)cc(CNS(C)(=O)=O)cc1F [Compound 404, N-{3,5-Difluoro-4[methyl-(1-methyl-1H-imidazo[4,5-c]pyridin-6-yl)-amino]-benzyl}-methanesulfonamide] | 101 to 500 nM |  | > 5000 nM | 0.01 to 100 nM | 101 to 500 nM |  | 0.01 to 100 nM | > 1000 nM |
| CN(c1cc2c(cn1)ncn2C)c1ccc(C2CN(S(=O)(=O)C(F)F)C2)cc1OC(F)F [Compound 370, {4-[1-(Difluoro-methanesulfonyl)-azetidin-3-yl]-2-difluoromethoxy-henyl}-methyl-(1-methyl-1H-imidazo[4,5-c]pyridin-6-yl)-amine] | 101 to 500 nM |  | 1000 to 5000 nM | 0.01 to 100 nM | 0.01 to 100 nM |  | 0.01 to 100 nM | > 1000 nM |
| CCc1cc(C(C#N)N2CCC2)ccc1N(C)c1cc2c(cn1)ncn2C (centres unmarked) [Compound 394] | 0.01 to 100 nM |  | 1000 to 5000 nM | 0.01 to 100 nM | 101 to 500 nM |  | 0.01 to 100 nM | > 1000 nM |

Now from value to molecule, other results behind:

| IC50 (human TYK2) | IC50 [1] | IC50 (BA/F3 cell line) | IC50 (human JAK1) | IC50 (human JAK3) | IC50 ([1]; Homo sapiens, HeLa) | IC50 (human JAK2) | SMILES | IC50 (CTLL-2 cell line) |
| --- | --- | --- | --- | --- | --- | --- | --- | --- |
| 0.01 to 100 nM |  | 1000 to 5000 nM | 0.01 to 100 nM | 0.01 to 100 nM | 1 to 500 nM |  | CCc1cc(C2=CCN(C(=O)COC)CC2)ccc1N(C)c1cc2c(cn1)ncn2C [Compound 199, 1-(4-(3-ethyl-4-(methyl(1-methyl-1H-imidazo[4,5-c]pyridin-6-yl)amino)phenyl)-5,6-dihydropyridin-1(2H)-yl)-2-methoxyethanone] | > 1000 nM |
| 0.01 to 100 nM |  | 1000 to 5000 nM | 0.01 to 100 nM | 101 to 500 nM | 501 to 1000 nM |  | CCc1cc(C2=CCN(C(=O)CC#N)CC2)ccc1N(C)c1cc2c(cn1)ncn2C [Compound 195, 3-(4-(3-Ethyl-4-(methyl(1-methyl-1H-imidazo[4,5-c]pyridin-6-yl)amino)phenyl)-5,6-dihydropyridin-1(2H)-yl)-3-oxopropanenitrile] | > 1000 nM |
| 0.01 to 100 nM |  | 1000 to 5000 nM | 0.01 to 100 nM | 0.01 to 100 nM | 1 to 500 nM |  | CCc1cc(-c2cncs2)ccc1N(C)c1cc2c(cn1)ncn2C [Compound 151, N-(2-Ethyl-4-(thiazol-5-yl)phenyl)-N,1-dimethyl-1H-imidazo[4,5-c]pyridin-6-amine] | > 1000 nM |
| 501 to 1000 nM |  | 1000 to 5000 nM | 0.01 to 100 nM | > 1000 nM | > 1000 nM |  | CCc1cc(-c2cncc(C(F)(F)F)c2)ccc1N(C)c1cc2c(cn1)ncn2C [Compound 194, N-(2-ethyl-4-(5-(trifluoromethyl)pyridin-3-yl)phenyl)-N,1-dimethyl-1H-imidazo[4,5-c]pyridin-6-amine] | > 1000 nM |
| 0.01 to 100 nM | 1 to 500 nM | 1000 to 5000 nM | 0.01 to 100 nM | 101 to 500 nM |  |  | CN(c1cc2c(cn1)ncn2C)c1ccc(-c2cnn(C)c2)cc1OC(F)F [Compound 274, N-(2-(Difluoromethoxy)-4-(1-methyl-1H-pyrazol-4-yl)phenyl)-N,1-dimethyl-1H-imidazo[4,5-c]pyridin-6-amine] | > 1000 nM |
| 0.01 to 100 nM |  | 1000 to 5000 nM | 0.01 to 100 nM | 0.01 to 100 nM | 1 to 500 nM |  | CCc1cc(C2=CCN(C(=O)C(F)F)CC2)ccc1N(C)c1cc2c(cn1)ncn2C [Compound 197, 1-(4-(3-ethyl-4-(methyl(1-methyl-1H-imidazo[4,5-c]pyridin-6-yl)amino)phenyl)-5,6-dihydropyridin-1(2H)-yl)-2,2-difluoroethanone] | 501 to 1000 nM |
| 101 to 500 nM |  | > 5000 nM | 0.01 to 100 nM | 0.01 to 100 nM | 1 to 500 nM |  | CCc1cc(CNC(=O)C(F)F)ccc1N(C)c1cc2c(cn1)ncn2C [Compound 256, N-(3-ethyl-4-(methyl(1-methyl-1H-imidazo[4,5-c]pyridin-6-yl)amino)benzyl)-2,2-difluoroacetamide] | > 1000 nM |
| 0.01 to 100 nM |  | 1000 to 5000 nM | 0.01 to 100 nM | 0.01 to 100 nM | 1 to 500 nM |  | CCc1cc(CNS(=O)(=O)CC(F)(F)F)ccc1N(C)c1cc2c(cn1)ncn2C [Compound 244, N-(3-ethyl-4-(methyl(1-methyl-1H-imidazo[4,5-c]pyridin-6-yl)amino)benzyl)-2,2,2-trifluoroethane sulfonamide] | > 1000 nM |
| 0.01 to 100 nM |  | 1 to 1000 nM | 0.01 to 100 nM | 0.01 to 100 nM | 1 to 500 nM |  | CCc1cc(-c2cn[nH]c2)ccc1N(C)c1cc2c(cn1)ncn2C [Compound 210, N-(2-ethyl-4-(1H-pyrazol-4-yl)phenyl)-N,1-dimethyl-1H-imidazo[4,5-c]pyridin-6-amine] | > 1000 nM |
| 0.01 to 100 nM |  | 1000 to 5000 nM | 0.01 to 100 nM | 0.01 to 100 nM | 1 to 500 nM |  | CCc1cc(CNS(C)(=O)=O)ccc1N(C)c1cc2c(cn1)ncn2C [Compound 190, N-(3-Ethyl-4-(methyl(1-methyl-1H-imidazo[4,5-c]pyridin-6-yl)amino)benzyl)methane sulfonamide] | > 1000 nM |
